Experiments:
CDK4 = system: CDK4; set-up: method as in PMID 31482107; details: for CDK4; cited from earlier work
Description: We next investigated whether CPP30‐Lipo/CDKACT4 could be used to monitor the inhibition by the CDK4 inhibitor palbociclib in living cells.

[1] = system: CDK4 kinase activity in MCF‐7 cells; assay: Cell microplate fluorescence imaging with CPP30‐Lipo/CDKACT4; assay type: cell-based, human; details: n = 3; for reduction of fluorescence intensity: probe 12 h
Procedure: (§1) Cells (∼8 × 10^3 cells per well) were seeded in black 96‐well plates and incubated with CPP30‐Lipo/CDKACT4 for 12 h after siRNA transfection or treatment with graded concentrations of palbociclib (HY‐50767; Medchemexpress). Then, the cells were washed three times with PBS and refilled with fresh PBS. Cell fluorescence signals were immediately detected using the IVIS Lumina II imaging system (PerkinElmer).

[2] = system: CDK4 kinase activity in T‐47D cells; assay: Cell microplate fluorescence imaging with CPP30‐Lipo/CDKACT4 in T‐47D; assay type: cell-based, human; details: different concentrations of palbociclib, n=3
Procedure: as §1

CDK4/Cyclin D = biological target: T1, CDK4/Cyclin D (Homo sapiens, UniProt P11802); assay: CDKACT4 biosensor fluorescence in MCF‐7 cell extracts; assay type: biochemical; details: incubation with cell extracts prepared with different concentrations of palbociclib, n = 5
T1 construct: Fluorescence changes of CDKACT4 biosensor incubated with MCF‐7 cell extracts; endogenous in cells; host or cells: MCF-7 breast cancer cell extracts
Procedure: We initially determined whether the CDKACT4 peptide biosensor that we synthesized was effective at monitoring CDK4 kinase activity in MCF‐7 breast cancer cell extracts.
FIGURE 2 Characterization and spectral stability of CPP30‐Lipo/CDKACT4. (A) Fluorescence changes of CDKACT4 biosensor incubated with MCF‐7 cell extracts (red), CDKACT4 alone (blue), and cell extracts alone (green) during 180 min (n = 5). (B) Relative fluorescence intensity of CDKACT4 biosensor incubated with MCF‐7 cell extracts was monitored over time after treatment with different concentrations of palbociclib (n = 5). (C) Relative fluorescence intensity of MCF‐7 cell extracts‐incubated CDKACT4 at 120 min post‐treated with different concentrations of palbociclib from (b) (n = 5, **p < 0.01). (D) Transmission electron microscopy (TEM) images of CPP30‐Lipo/CDKACT4. Scale bar = 200 nm. (E) Diameter distribution of CPP30‐Lipo/CDKACT4. (F, G) UV–vis absorption spectra (F) and fluorescence emission spectra (G) of water, 5‐TAMRA, CDKACT4, and CPP30‐Lipo/CDKACT4. (H, I) Changes in absorption and fluorescence spectra of CPP30‐Lipo/CDKACT4 during 96 h in water. The samples were stored at room temperature in the dark

MCF‐7 cells = assay: Cell cycle analysis (propidium iodide, flow cytometry); assay type: cell-based, human; details: MCF‐7, increasing concentration of palbociclib, n = 3
Procedure: Cells were harvested and fixed in 70% ethanol at 4 °C overnight. Then, the samples were incubated in a solution of 10 mg/ml RNase and 1 mg/ml propidium iodide (Yeasen Biotech) at 37 °C for 30 min in the dark. The DNA content was determined using flow cytometry (Becton, Dickinson & Co.).

[3] = system: pRb (S795) in MCF‐7 cells; assay: Western blot of pRb (S795); assay type: cell-based, human
Procedure: Cells or minced tumor tissues were washed three times with ice‐cold PBS and lysed in RIPA buffer containing protease inhibitor cocktail (Roche Molecular Systems) and phosphatase inhibitor cocktail (Bimake). Tissues were further ground using a glass homogenizer on ice. Protein concentrations were determined with a BCA kit (Solarbio). Subsequent steps were performed as recently described.[36]

MCF‐7 tumor xenografts = assay: In‐vivo fluorescence imaging, MRI and tumor analysis of MCF‐7 tumor xenografts; set-up: species or system BALB/c nude mice; details: for change of tumor/muscle (T/M) fluorescence signal ratio: 150 mg/kg daily oral gavage 7 days, pre vs post, average, n = 6
Procedure: For MCF‐7 tumor model establishment, 6–8‐week old female BALB/c nude mice purchased from Xiamen University Laboratory Animal Center were first subcutaneously implanted with 60‐day release 17β‐estradiol pellets (Innovative Research of America) in the right side of the neck. Three days later, 2 × 10^6 MCF‐7 cells were injected subcutaneously in 1:1 PBS:Matrigel (BioCoat) into the right leg of the nude mice. Tumors were measured by caliper two or three times per week.
When MCF‐7 tumors grew to a volume of 75–100 mm^3, the mice were randomly divided into two groups (n = 6) and given palbociclib (150 mg/kg diluted in […] sodium D‐lactate) or sterile water daily by oral gavage. Magnetic resonance imaging was performed before (0 days) and 7 days after treatment using a 9.4T BioSpec MicroMRI (Bruker), and fluorescence imaging was also performed using the IVIS Lumina II imaging system (PerkinElmer) at the observation time points after intravenous injection with CPP30‐Lipo/CDKACT4 (10 μl/g body weight, containing 30 μM CDKACT4). After imaging, tumor tissue was collected for IHC staining.
Tumors were fixed in 4% paraformaldehyde, embedded in paraffin, and cut into 4‐μm slices. Then, the sections were stained with rabbit monoclonal antibody to Rb (Phospho S795) (1:100 dilution, ab47474; Abcam) or Ki67 (1:500 dilution, 9449; CST). Finally, the sections were observed under an optical microscope.

T1 sequence (P11802 2-303 limits assumed): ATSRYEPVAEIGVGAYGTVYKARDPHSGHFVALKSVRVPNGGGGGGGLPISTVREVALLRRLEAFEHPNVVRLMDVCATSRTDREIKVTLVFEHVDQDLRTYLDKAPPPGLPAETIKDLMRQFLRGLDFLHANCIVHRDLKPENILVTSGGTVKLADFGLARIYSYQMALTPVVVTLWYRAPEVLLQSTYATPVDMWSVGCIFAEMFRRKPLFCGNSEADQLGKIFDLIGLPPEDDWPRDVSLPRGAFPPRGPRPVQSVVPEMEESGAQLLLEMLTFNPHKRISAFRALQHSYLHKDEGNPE
T1 sequence (P24385 whole entry partner): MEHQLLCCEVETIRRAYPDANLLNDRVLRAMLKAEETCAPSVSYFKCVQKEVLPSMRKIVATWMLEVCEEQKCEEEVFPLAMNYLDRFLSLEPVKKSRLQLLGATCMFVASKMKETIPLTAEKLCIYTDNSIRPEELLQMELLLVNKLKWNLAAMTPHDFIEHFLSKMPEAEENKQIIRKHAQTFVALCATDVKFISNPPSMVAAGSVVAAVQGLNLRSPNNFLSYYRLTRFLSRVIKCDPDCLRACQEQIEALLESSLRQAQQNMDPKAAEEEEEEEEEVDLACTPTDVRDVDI

SMILES	IC50 (CDK4)	reduction of fluorescence intensity ([1]; MCF‐7, inhibitor 10 nM)	reduction of fluorescence intensity ([1]; MCF‐7, inhibitor 100 nM)	reduction of fluorescence intensity ([1]; MCF‐7, inhibitor 1000 nM)	fluorescence intensity of CPP30‐Lipo/CDKACT4 [2]	fluorescence of the CDKACT4 peptide biosensor (CDK4/Cyclin D)	cells arrested in the G1 phase (MCF‐7 cells)	pRb (S795) protein level [3]	fluorescence intensity under a microscope ([1]; MCF‐7, confocal/fluorescence microscopy after incubation with probe)	change of tumor/muscle (T/M) fluorescence signal ratio (MCF‐7 tumor xenografts; 12 h after caudal vein injection of probe)	change of tumor/muscle (T/M) fluorescence signal ratio (MCF‐7 tumor xenografts; 24 h after caudal vein injection of probe)	change of tumor/muscle (T/M) fluorescence signal ratio (MCF‐7 tumor xenografts; 48 h after caudal vein injection of probe)	longest diameter of the tumor by MRI (MCF‐7 tumor xenografts; 150 mg/kg daily, day 0 vs day 7, n = 6)	tumor growth (MCF‐7 tumor xenografts; after 14 days of treatment, n = 4)	percentage of cells positive for pRb in tumors (MCF‐7 tumor xenografts; baseline vs day 7, immunohistochemical staining pRb (S795))	tumor volume versus control group (MCF‐7 tumor xenografts; during the 7 days of treatment, caliper)	ex vivo fluorescence intensity of tumors versus control group (MCF‐7 tumor xenografts; palbociclib 7 days, 48 h post‐injection of probe, n = 3, p < 0.05)	Ki‐67 staining in tumors (MCF‐7 tumor xenografts; palbociclib 7 days, immunohistochemical staining)
CCN1CCN(Cc2ccc(Nc3ncc(F)c(-c4cc(F)c5nc(C)n(C(C)C)c5c4)n3)nc2)CC1 [abemaciclib]	[…]	14.37%	50.13%	81.35%														
CC(=O)c1c(C)c2cnc(Nc3ccc(N4CCNCC4)cn3)nc2n(C2CCCC2)c1=O [palbociclib]		3.17%	44.70%	60.67%	decreased with the increasing dose	decreased in a dose‐dependent manner	up to 86.39%	dose‐dependent decrease	significant dose‐dependent reduction	–18.86%	–18.69%	–18.49%	no significant change	significantly inhibited	clear reductions	no significant difference	significantly lower	substantially reduced

— publication PMC9187519, “In vivo visualization of fluorescence reflecting CDK4 activity in a breast cancer mouse model” (MedComm, 2022)
